{"source": "patent US20180370912A1", "about": "“COMPOUNDS AND METHODS FOR TREATING DISEASES MEDIATED BY PROTEIN DISULFIDE ISOMERASE” (Beth Israel Deaconess Medical Center, Inc., priority 2017, published 2018)", "key": {"[1]": {"system": "tumor growth", "conditions": "murine model ovarian cancer, Xu et al. 2012; cited from earlier work"}, "[2]": {"biological_target": "T1, abb′x fragment of PDI (Homo sapiens, UniProt P07237)", "T1 construct": "1.25 μg of the abb′x fragment; His; made in house; host or cells: Escherichia coli Origami B (DE3), pET-15b", "T1 sequence (P07237 18-368 limits assumed)": "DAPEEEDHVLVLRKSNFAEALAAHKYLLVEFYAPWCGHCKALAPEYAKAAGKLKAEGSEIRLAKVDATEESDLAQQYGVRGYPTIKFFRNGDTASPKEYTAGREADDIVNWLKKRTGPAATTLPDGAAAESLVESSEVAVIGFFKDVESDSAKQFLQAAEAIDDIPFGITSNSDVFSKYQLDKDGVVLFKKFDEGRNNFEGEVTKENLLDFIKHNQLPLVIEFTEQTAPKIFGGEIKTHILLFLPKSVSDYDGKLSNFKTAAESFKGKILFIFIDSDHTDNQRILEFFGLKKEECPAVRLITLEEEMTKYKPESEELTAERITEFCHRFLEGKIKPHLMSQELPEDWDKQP", "test": "Proteolysis assay with proteinase K", "experimental": "Proteinase K (2 μg/mL) was incubated with 1.25 μg of the abb′x fragment in 50 mM Tris-HCl containing 5 mM CaCl2 and 10 mM DTT. Reactions were aborted with the addition of 0.5 mM phenylmethanesulfonyl fluoride (PMSF). Subsequently, samples were subjected to Laemmli Sample buffer with 5% β-mercaptoethanol and heated at 95° C. for 10 minutes. Each sample was loaded on a 12% SDS-PAGE gel, followed by silver staining using the Pierce Silver Stain Kit (Thermo Scientific)."}, "[3]": {"biological_target": "T2, PDI mutant in which the CGHC motif is mutated to AGHA (Homo sapiens, UniProt P07237, C397A/C400A/C53A/C56A)", "T2 sequence (P07237 18-508 C53A/C56A/C397A/C400A)": "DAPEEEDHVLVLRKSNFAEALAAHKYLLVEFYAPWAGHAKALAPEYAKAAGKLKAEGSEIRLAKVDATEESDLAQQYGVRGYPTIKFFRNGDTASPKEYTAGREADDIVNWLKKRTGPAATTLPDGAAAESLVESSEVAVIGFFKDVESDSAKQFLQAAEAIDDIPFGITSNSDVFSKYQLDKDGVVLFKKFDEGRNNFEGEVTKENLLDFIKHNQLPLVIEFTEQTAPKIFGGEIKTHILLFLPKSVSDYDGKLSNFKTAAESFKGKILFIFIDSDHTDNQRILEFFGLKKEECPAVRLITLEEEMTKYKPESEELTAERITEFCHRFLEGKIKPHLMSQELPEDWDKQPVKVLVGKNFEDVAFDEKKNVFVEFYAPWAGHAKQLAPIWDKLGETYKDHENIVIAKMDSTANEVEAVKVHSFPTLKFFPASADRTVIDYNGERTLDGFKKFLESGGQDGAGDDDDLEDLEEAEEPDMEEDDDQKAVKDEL", "test": "Di-eosin-GSSG disulfide reductase assay, catalytically inactive mutant", "format": "biochemical", "conditions": "FIG. 1c", "experimental": "(§1) The probe di-eosin glutathione disulfide, di-eosin-GSSG, was prepared as previously described in Raturi, A., Vacratsis, P. O., Seslija, D., Lee, L. & Mutus, B., Biochem J 391, 351-357 (2005). Reductase activity of purified thiol isomerases and PDI domains was monitored in a 96-well fluorescence plate format. PDI, AGHA-PDI, ERpS, ERp57, ERp72 and PDI domains were assayed at 50 nM in the presence or absence of the indicated small molecules, peptides or cathepsin G. The assay included 100 mM potassium phosphate (pH 7.4) containing 2 mM EDTA, 5 μM DTT and 150 nM of the di-eosin GSSG probe. The increase in fluorescence was determined for 20 minutes by excitation at 520 nm and emission at 550 nm in a Synergy Biotek 4. The reduction of 150 nM di-eosin-GSSG by 5 μM DTT in the presence or absence of mentioned small molecules, peptides or proteins served as a negative control."}, "[4]": {"biological_target": "T3, PDI fragments abb′ and b′xa′ (Homo sapiens, UniProt P07237)", "T3 construct": "abb′ (residues 1-331), or b′xa′ (residues 219-462); His; made in house; host or cells: Escherichia coli Origami B (DE3), pET-15b", "test": "Di-eosin-GSSG reductase assay of PDI fragments", "format": "biochemical", "conditions": "30 μM, FIG. 5a", "experimental": "as §1", "T3 sequence (P07237 236-479)": "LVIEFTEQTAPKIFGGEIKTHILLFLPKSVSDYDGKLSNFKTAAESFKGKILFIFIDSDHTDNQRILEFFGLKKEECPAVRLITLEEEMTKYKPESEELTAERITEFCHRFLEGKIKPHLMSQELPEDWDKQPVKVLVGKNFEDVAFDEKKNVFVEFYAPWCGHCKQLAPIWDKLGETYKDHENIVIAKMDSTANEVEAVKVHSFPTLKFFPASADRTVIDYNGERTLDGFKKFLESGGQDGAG"}, "[5]": {"biological_target": "T4, PDI fragments abb′ and b′xa′ (Homo sapiens, UniProt P07237)", "T4 construct": "abb′ (residues 1-331), or b′xa′ (residues 219-462); His; made in house; host or cells: Escherichia coli Origami B (DE3), pET-15b", "T4 sequence (P07237 18-348)": "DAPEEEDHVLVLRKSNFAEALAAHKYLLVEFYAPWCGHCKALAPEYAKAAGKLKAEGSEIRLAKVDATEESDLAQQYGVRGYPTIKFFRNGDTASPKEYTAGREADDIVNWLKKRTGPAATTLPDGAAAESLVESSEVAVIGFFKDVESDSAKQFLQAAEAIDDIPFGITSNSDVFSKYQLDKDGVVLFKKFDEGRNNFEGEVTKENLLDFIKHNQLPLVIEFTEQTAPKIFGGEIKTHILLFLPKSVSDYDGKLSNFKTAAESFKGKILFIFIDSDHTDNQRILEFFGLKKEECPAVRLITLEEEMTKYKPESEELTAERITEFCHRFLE", "test": "Di-eosin-GSSG reductase assay of PDI fragments", "format": "biochemical", "conditions": "30 μM, FIG. 5a", "experimental": "as §1", "remark": "listed apart in the source"}, "[6]": {"biological_target": "T5, full-length PDI (Homo sapiens, UniProt P07237)", "T5 construct": "FLAG; made in house; host or cells: Escherichia coli Origami B (DE3), pET-15b", "T5 sequence (P07237 18-508)": "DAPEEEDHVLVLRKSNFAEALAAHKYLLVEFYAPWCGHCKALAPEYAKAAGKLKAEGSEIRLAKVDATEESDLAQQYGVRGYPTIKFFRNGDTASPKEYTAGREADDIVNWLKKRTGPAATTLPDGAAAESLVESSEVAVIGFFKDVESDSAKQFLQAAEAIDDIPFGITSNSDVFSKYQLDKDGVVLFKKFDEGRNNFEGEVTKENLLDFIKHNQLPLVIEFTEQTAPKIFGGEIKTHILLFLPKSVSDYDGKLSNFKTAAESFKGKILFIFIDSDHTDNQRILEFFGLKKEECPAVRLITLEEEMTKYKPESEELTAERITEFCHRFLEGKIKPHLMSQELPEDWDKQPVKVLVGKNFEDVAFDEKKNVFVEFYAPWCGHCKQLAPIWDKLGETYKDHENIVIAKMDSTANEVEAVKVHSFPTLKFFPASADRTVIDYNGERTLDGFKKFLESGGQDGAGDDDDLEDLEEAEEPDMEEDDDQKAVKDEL", "test": "Small-angle X-ray scattering (SAXS)", "experimental": "Further purification of full-length PDI was achieved by gel filtration. PDI (1.5, 3.0 and 4.5 mg/mL) was dialyzed against 20 mM Tris, 150 mM NaCl, 5% glycerol (pH: 8.0) containing 0.5 mM bepristat 1b or 2b or DMSO control at 4° C. overnight. Evaluation by SAXS was performed on the SIBYLS beamline in the Advanced Light Source using a high throughput data collection method."}}}
{"smiles": "C#CC(=O)N(c1ccc(OC)cc1OC)C(C(=O)NCC(=O)OCC)c1cccs1", "note": "(stereo not shown) [PACMA-31, N-(2,4-Dimethoxyphenyl)-N-(1-oxo-2-propyn-1-yl)-2-(2-thienyl)glycyl-glycine ethyl ester, reference compound]", "values": [{"measurement": "tumor growth", "setting": "[1]", "result": "impairs tumor growth"}]}
{"smiles": "CCOC(=O)c1c(CNCCN(CC)CC)n(-c2ccccc2)c2cc(Br)c(O)cc12", "note": "[bepristat 2a]", "values": [{"measurement": "proteinase K activity (cleavage of ERp5)", "setting": "[2]; control, not shown", "result": "did not interfere with proteinase K activity"}, {"measurement": "cleavage of abb′x by proteinase K", "setting": "[2]; presence versus absence of compound, FIG. 5b", "result": "occurred more rapidly"}, {"measurement": "augmentation of activity of catalytically inactive PDI (AGHA)", "setting": "[3]", "result": "fails to augment activity"}, {"measurement": "di-eosin-GSSG cleavage by b′xa′ fragment", "setting": "[4]", "result": "significantly augmented the catalytic activity"}, {"measurement": "di-eosin-GSSG cleavage by abb′ fragment", "setting": "[5]", "result": "failed to augment activity"}, {"measurement": "PDI conformation by SAXS", "setting": "[6]", "result": "more compact conformation"}]}
